# Laboratory results reported in PMC5354587, “Ergosterone-coupled Triazol molecules trigger mitochondrial dysfunction, oxidative stress, and acidocalcisomal Ca^2+ release in Leishmania mexicana promastigotes” (Microbial Cell, 2015).
# What was measured:
# Format in all cases: cell-based
# [1] = system: Leishmania mexicana promastigotes; assay: Annexin V-AlexaFluor488/propidium iodide double staining, flow cytometry; settings: Erg-GTr 1.4 μM or Erg-GTr2 2.3 μM
# Description: The effect of Erg-GTr and Erg-GTr2 was further analyzed to determine the cell death mechanism. Asymmetry of the plasma membrane is loosed when cell death processes are activated. The Annexin V-AlexaFluor488/propidium iodide double staining was used to detect phosphatidylserine (PS) in the outer leaflet of the plasma membrane using flow cytometry after parasite treatment. Cells were incubated for 24 and 48 hours with Erg-GTr (1.4 μM) or Erg-GTr2 (2.3 μM). […] At this time, the integrity of the plasma membrane was still intact, as evidenced by a low PI staining (5% or lower). After 48 hours, the percentage of Annexin V positive cells increased to reach more than 60% (Erg-GTr) or was maintained at around 40% in the case of Erg-GTr2 (Figure 2B). […] This phenomenon has been reported as a criterium of the late stage of cell death processes.
# The annexin V-AlexaFluor 488 (Invitrogen) was used following the manufacture recommendations. Briefly, 1 x 10^6 parasites were washed with PBS and incubated with annexin V and propidium iodide (0.05 mg x mL^-1) in 100 μL binding buffer for 15 minutes. Final volume was adjusted at 500 μL and samples were immediately analyzed in a Beckman Coulter Gallios Cytometer.
# [2] = system: Leishmania mexicana promastigotes; assay: DNA content analysis with propidium iodide (cell cycle, SubG1); settings: 1.4 μM Erg-GTr or 2.3 μM Erg-GTr2, 48 hours
# Description: In order to analyze if Erg-GTr molecules influence the normal cell cycle distribution, the DNA content of treated cells was evaluated using propidium iodide.
# Figure 4 FIGURE 4: Analysis of the DNA content in L. mexicana promastigotes. Treated (1.4 μM Erg-GTr or 2.3 μM Erg-GTr2) or control cells (DMSO) were harvested at different time points and prepared for determination of DNA content. Acquisition was performed in arithmetic scale to obtain G1 and G2/M peaks and in logarithmic scale to earn the subG1 peak. (A) Percentage of cells in the different phases of the cell cycle after 24 and 48 hours treatment. (B) SubG1 peak in percentage after 16, 24 and 48 hours drug contact. Quantification was carried out using the WinMDI software. The bars represent the mean+/-S.D. of three individual cultures measured at each time point.
# Propidium iodide was used to determinate the DNA content in parasites after treatment. 1 x 10^6 parasites were washed with PBS and resuspended in 100 μL lysis buffer (7.7 mM Na2HPO4, 2.3 mM KH2PO4) containing 6 μM digitonin. Samples were incubated at 4°C for 30 minutes. Finally, 400 μL staining buffer (20 μg/mL propidium iodide in PBS) was added to each sample. Samples were kept on ice in the dark until their analysis in the cytometer (Beckman Coulter).
# [3] = system: Leishmania mexicana promastigotes; assay: Mitochondrial membrane potential immediately after addition, rhodamine 123; settings: Erg-GTr 1.4 μM or Erg-GTr2 2.3 μM
# Description: As the Leishmania mitochondrion seems to be involved in [Ca^2+]cyt regulation and can also accumulate Ca^2+ [9], the effect of Erg-GTr and Erg-GTr2 was analyzed immediately after its addition to parasites preloaded with rhodamine 123.
# Mitotracker CMX Red(Invitrogen) was used to determine the mitochondrial membrane potential (Ψmit) of treated parasites. After 6, 16, 24, and 48 hours treatment, cells were incubated in culture medium with 50 nM Mitotracker CMX Red for 30 minutes at 26°C in the dark. Thereafter, parasites were washed twice with PBS, resuspended in 1 mL buffer, and analyzed using a cytometer (Beckman Coulter). Parasites incubated with valinomycin (500 nM for 30 minutes) were used as positive control. To evaluate the effect of ergosterone coupled molecules on the mitochondrial membrane potential immediately after molecule addition we used the fluorophore rhodamine-123, a mitochondrion-specific cationic dye, which distributes across the inner mitochondrial membranes strictly according to their membrane potential, as described before. Briefly, 1 x 10^7 parasites were washed twice with rhodamine 123 loading buffer (20 mM Tris-HCl, 130 mM KCl, 1 mM MgCl2, and 2 mM KH2PO4) and incubated with 20 μM rhodamine 123 for 45 minutes at 29°C under agitation. […] Fluorescence (ex 488 nm and em 530 nm) was registered in a Hitachi F-7000 Spectrofluorimeter. […]
# [4] = system: Leishmania mexicana promastigotes; assay: Transmission electron microscopy of treated parasites; settings: 48 hours, TEM
# Description: To analyze if changes observed after parasite treatment with Erg-GTr or Erg-GTr2 can be associated with morphological alterations, cells were prepared for transmission electron microscopy as described in materials and methods section.
# Figure 5 FIGURE 5: Transmission electron microscopy (TEM) of Epon-embedded cells. Parasites were treated with 1.4 μM Erg-GTr, 2.3 μM Erg-GTr2 or DMSO (control cells), harvested after 48 hours and prepared for TEM. (A) The most obvious alterations in Erg-GTr-treated cells are as follows: increase of vacuolar structures containing cytoplasmic material (c, d, f, h), myelin-like structures (d, h), increase of lysosomes (d, e, g), and flagellar pocket containing some material (g). Note the usual appearance of mitochondria, nucleus and cytoplasmic content in control cells (a, b). Abbreviations used: lysosome (L); nucleus (N); flagellar pocket (FP); mitochondrion (M). Arrows and asterisk indicate autophagosomes and myelin-like structures, respectively. (B) Mitochondrion zoom in to show cristae. […] Bars represent 0.5 μ each.
# For TEM, 10^8 parasites were fixed in 2% (vol/vol) glutaraldehyde in 0.2 M sodium cacodylate buffer containing 0.12 M sucrose for 1 h at 4°C. Thereafter samples were washed four times (10 min each) and stored overnight in sodium cacodylate buffer. Before dehydration in ethanol, cells were postfixed in osmium tetroxide (1.5%, wt/vol) and stained in 0.5% uranyl acetate. Samples were cleared in propylene oxide and embedded in Agar 100 as described by. Sections were stained in 5% (wt/vol) uranyl acetate and 0.4% (wt/vol) lead citrate.
structure (smiles),measurement,setting,value
"CC(C)C(C)C=CC(C)C1CCC2C3=CC(=NNC(=O)n4cnnc4)C4(O)CC(=O)CCC4(C)C3CCC21C (stereo not drawn) [Erg-GTr, [1,2,4]triazole-4-carboxylic acid [5-hydroxy-10,13-dimethyl-3-oxo-17-(1,4,5-trimethyl-hex-2-enyl)-1,2,3,4,5,9,10,11,12,13,14,15,16,17-tetradecahydro-cyclopenta[a]phenanthren-6-ylidene]-hydrazide]",PI staining,[1]; 24 hours,≤ 5%
same,"PS exposure, percentage of the cell population",[1]; 24 hours,40.2%
same,PI positive cells,[1]; 48 hours,31%
same,percentage of Annexin V positive cells,[1]; 48 hours,more than 60%
same,cell cycle arrest in the G2/M phase,[2],moderate
same,rhodamine 123 fluorescence (depolarization of mitochondrial membrane potential),[3],slow fluorescence increase
same,autophagy (ultrastructural changes),[4],Induction of autophagy
same,treated parasites showing increase in cristae number and size,[4],More than 50%
same,number and size of mitochondrion cristae,[4]; compared with control,higher
